Measured values: article PMC9296036, “A peptide interfering with the dimerization of oncogenic KITENIN protein and its stability suppresses colorectal tumour progression” (Clinical and Translational Medicine, 2022)
Ends that are not written are not given here.

Target: T1, KITENIN homodimer (Homo sapiens, UniProt Q8TAA9)
T1 construct: Lysates of 293T cells expressing full‐length KITENIN‐myc; expressed in transfected cells; host or cells: Caco2
T1 sequence (Q8TAA9 1-524): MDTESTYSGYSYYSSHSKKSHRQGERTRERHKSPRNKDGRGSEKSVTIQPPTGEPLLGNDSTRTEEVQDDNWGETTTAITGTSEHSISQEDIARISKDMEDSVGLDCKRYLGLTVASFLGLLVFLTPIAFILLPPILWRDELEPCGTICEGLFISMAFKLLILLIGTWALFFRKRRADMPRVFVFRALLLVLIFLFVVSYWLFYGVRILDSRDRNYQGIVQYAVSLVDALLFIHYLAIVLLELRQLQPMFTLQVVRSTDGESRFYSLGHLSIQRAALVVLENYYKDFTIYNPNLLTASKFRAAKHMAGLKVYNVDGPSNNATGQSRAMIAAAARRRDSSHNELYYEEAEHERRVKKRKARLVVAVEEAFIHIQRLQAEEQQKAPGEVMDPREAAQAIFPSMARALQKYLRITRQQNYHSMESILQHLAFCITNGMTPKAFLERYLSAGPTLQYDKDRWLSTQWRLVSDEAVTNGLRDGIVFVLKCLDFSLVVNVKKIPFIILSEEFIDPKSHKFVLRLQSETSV
Experiment: KITENIN homodimerization in Caco2 cells co-expressing KITENIN-V5/Myc (co-immunoprecipitation)
Assay type: cell-based
From the text: Antibodies against the following proteins were obtained from the indicated suppliers: Na^+/K^+ ATPase, GFP and tubulin (Santa Cruz Biotechnology); c‐Jun, p‐c‐Jun, ERK, p‐ERK, c‐MET, p‐c‐MET and GST (Cell Signaling Technology); V5, Myc (MBL); HA and β‐actin (Sigma); KITENIN (Atlas); His and RACK1, LC3, p62, Myo10, and eukaryotic elongation factor 2 (eEF2) (Abcam). They were used with appropriate secondary antibodies (Thermo). For transient transfection analyses, Caco2, HCT116 and 293T cells were transfected with various plasmids and harvested for immunoblot analysis 48 h after transfection. For most assays using stable cell lines, mixed polyclonal cells were used to exclude clonal variation. […]
FIGURE 2 KAI1 C‐terminal interacting tetraspanin (KITENIN) dimerization‐interfering peptide (KDIP) suppresses KITENIN‐induced enhanced cell invasion through the inhibition of the homodimerization of KITENIN. […] After 48 h of treatment, KITENIN transcripts in cells were analysed by the 2^−ΔΔ ^CT method using Q‐PCR. […] Caco2 cells were co‐transfected with KITENIN‐V5/Myc and treated with or without KDIP or scrambled peptide (scr) and were immunoprecipitated with anti‐V5 antibody and detected by indicated antibodies. Numerals indicated a quantification of the MYC bands normalized to the corresponding V5 bands (left panel). […] Numerals indicated a quantification of the bands observed (left panel). […]

## YARVRRRGPRRWRLVSDEAV [KDIP]
Caco2 cells co-expressing KITENIN-Myc and KITENIN-V5, co-IP and invasion assay
  inhibition of dimerization and cell invasion caused by KITENIN overexpression, rank among the 7 peptides of the 449-487 region: most effective
Caco2 cells co-transfected with KITENIN-V5/Myc, co-IP
  homodimerization of KITENIN in cells (in words): reduced
